According to ChEMBL document CHEMBL5550219, “Distinct Amino Acid-Based PROTACs Target Oncogenic Kinases for Degradation in Non-Small Cell Lung Cancer (NSCLC)” (J Med Chem, 2024):
Activity calls are given as the source filed them. No cut-off for these calls is given here.

Tests used:
NCI-H1975 [1] = assay: Induction of apoptosis in human NCI-H1975 cells assessed as increase in early apoptotic cells incubated for 72 hrs by Annexin V-FITC/PI staining based flow cytometry; assay type: functional, cell-based; conditions: dose 10-20 µM
[2] = Tmax in mouse at 2 mg/kg, iv measured for 12 hrs by HPLC analysis; assay type: ADME, organism-based; conditions: in vivo
NCI-H1975 [3] = assay: Induction of cell cycle arrest at G1 phase in human NCI-H1975 cells at 10 uM incubated for 72 hrs by flow cytometry (reference value: 44.5 +/- 1.5 %); assay type: functional
NCI-H3122 [4] = assay: Inhibition of cell viability in human NCI-H3122 cells incubated for 48 to 72 hrs by CCK8 assay
[5] = Cmax in mouse at 2 mg/kg, iv measured for 12 hrs by HPLC analysis; assay type: ADME, organism-based; conditions: in vivo
[6] = Tmax in mouse at 50 mg/kg, ip measured for 12 hrs by HPLC analysis; assay type: ADME, organism-based; conditions: in vivo
[7] = Half life in mouse at 50 mg/kg, ip measured for 12 hrs by HPLC analysis; assay type: ADME, organism-based; conditions: in vivo
NCI-H3122 [8] = assay: Induction of cell cycle arrest at G1 phase in human NCI-H3122 cells at 5 uM incubated for 48 hrs by flow cytometry (reference value: 64.9 +/- 0.6 %); assay type: functional
NCI-H1975 [9] = assay: Inhibition of cell viability in human NCI-H1975 cells incubated for 48 to 72 hrs by CCK8 assay
NCI-H1975 [10] = assay: Induction of cell cycle arrest at G1 phase in human NCI-H1975 cells at 20 uM incubated for 72 hrs by flow cytometry (reference value: 44.5 +/- 1.5 %); assay type: functional
NCI-H3122 [11] = assay: Induction of cell cycle arrest at S phase in human NCI-H3122 cells at 5 uM incubated for 48 hrs by flow cytometry (reference value: 25.7 +/- 0.4 %); assay type: functional
NCI-H3122 [12] = assay: Induction of cell cycle arrest at G2 phase in human NCI-H3122 cells at 10 uM incubated for 48 hrs by flow cytometry (reference value: 9.4 +/- 0.5 %); assay type: functional
NCI-H1975 [13] = assay: Induction of apoptosis in human NCI-H1975 cells assessed as increase in late apoptotic cells incubated for 72 hrs by Annexin V-FITC/PI staining based flow cytometry; assay type: functional, cell-based; conditions: dose 10-20 µM
[14] = […] measured for 12 hrs by HPLC analysis; assay type: ADME, organism-based; conditions: in vivo
NCI-H1975 [15] = assay: Induction of cell cycle arrest at S phase in human NCI-H1975 cells at 20 uM incubated for 72 hrs by flow cytometry (reference value: 12.1 +/- 0.7 %); assay type: functional
[16] = AUC (0 to t) in mouse at 50 mg/kg, ip measured for 12 hrs by HPLC analysis; assay type: ADME, organism-based; conditions: in vivo
[17] = Cmax in mouse at 50 mg/kg, ip measured for 12 hrs by HPLC analysis; assay type: ADME, organism-based; conditions: in vivo
[18] = Half life in mouse at 2 mg/kg, iv measured for 12 hrs by HPLC analysis; assay type: ADME, organism-based; conditions: in vivo
NCI-H1299 = assay: Effect on wild-type EGFR expression in human NCI-H1299 cells upto 20 uM incubated for 72 hrs by immunoblot analysis; assay type: functional, cell-based
HEK-293T = assay: Inhibition of cell viability in HEK293T cells upto 20 uM incubated for 48 hrs by CCK8 assay; assay type: toxicity, cell-based; conditions: human
SK-N-BE(2) = assay: Effect on wild-type ALK in human SK-N-BE(2) cells upto 20 uM incubated for 48 hrs by immunoblot analysis; assay type: functional, cell-based
SH-SY5Y = assay: Effect on ALK F1174L mutant in human SH-SY5Y cells upto 20 uM incubated for 48 hrs by immunoblot analysis; assay type: functional, cell-based
NCI-H3122 [19] = assay: Induction of apoptosis in human NCI-H3122 cells assessed as increase in late apoptotic cells incubated for 48 hrs by Annexin V-FITC/PI staining based flow cytometry; assay type: functional, cell-based; conditions: dose 5-10 µM
NCI-H3122 [20] = assay: Induction of apoptosis in human NCI-H3122 cells assessed as increase in early apoptotic cells incubated for 48 hrs by Annexin V-FITC/PI staining based flow cytometry; assay type: functional, cell-based; conditions: dose 5-10 µM
[21] = AUC (0 to t) in mouse at 2 mg/kg, iv measured for 12 hrs by HPLC analysis; assay type: ADME, organism-based; conditions: in vivo
NCI-H3122 [22] = assay: Induction of cell cycle arrest at G2 phase in human NCI-H3122 cells at 5 uM incubated for 48 hrs by flow cytometry (reference value: 9.4 +/- 0.5 %); assay type: functional
NCI-H1975 [23] = assay: Induction of cell cycle arrest at S phase in human NCI-H1975 cells at 10 uM incubated for 72 hrs by flow cytometry (reference value: 12.1 +/- 0.7 %); assay type: functional
NCI-H3122 [24] = assay: Induction of cell cycle arrest at G1 phase in human NCI-H3122 cells at 10 uM incubated for 48 hrs by flow cytometry (reference value: 64.9 +/- 0.6 %); assay type: functional
NCI-H3122 [25] = assay: Induction of cell cycle arrest at S phase in human NCI-H3122 cells at 10 uM incubated for 48 hrs by flow cytometry (reference value: 25.7 +/- 0.4 %); assay type: functional
NCI-H1975 [26] = assay: Induction of cell cycle arrest at G2 phase in human NCI-H1975 cells at 20 uM incubated for 72 hrs by flow cytometry (reference value: 43.4 +/- 1.5 %); assay type: functional
A549 = assay: Effect on wild-type EGFR expression in human A549 cells upto 20 uM incubated for 72 hrs by immunoblot analysis; assay type: functional, cell-based
NCI-H3122 [27] = assay: Inhibition of cell viability in human NCI-H3122 cells harboring sgGID4 incubated for 48 hrs by CCK8 assay; assay type: functional, cell-based
PC-9 = assay: Effect on EGFR del19 mutant expression in human PC-9 cells upto 20 uM incubated for 72 hrs by immunoblot analysis; assay type: functional, cell-based
NCI-H1975 [28] = assay: Induction of cell cycle arrest at G2 phase in human NCI-H1975 cells at 10 uM incubated for 72 hrs by flow cytometry (reference value: 43.4 +/- 1.5 %); assay type: functional
NCI-H1975 [29] = assay: Inhibition of cell viability in human NCI-H1975 cells harboring sgGID4 incubated for 72 hrs by CCK8 assay; assay type: functional, cell-based

Structure (SMILES): COc1cc(N2CCN(C(=O)CCOCCOCCOCCNC(=O)[C@@H]3CCCN3)CC2)ccc1Nc1ncc(Cl)c(Nc2ccccc2P(C)(C)=O)n1
- Activity (NCI-H1975 [1]): Dose-Dependent Effect
- Tmax [2]: 4.98 min
- Activity (NCI-H1975 [3]): 57.3%
- IC50 (NCI-H3122 [4]): 0.16 µM
- Cmax [5]: 3720 ng/mL
- Tmax [6]: 0.5 h
- half-life [7]: 5.18 h
- Activity (NCI-H3122 [8]): 84.2%
- IC50 (NCI-H1975 [9]): 8.8 µM
- Activity (NCI-H1975 [10]): 78.4%
- Activity (NCI-H3122 [11]): 7.3%
- Activity (NCI-H3122 [12]): 5.5%
- Activity (NCI-H1975 [13]): Dose-Dependent Effect
- bioavailability [14]: 53.2%
- Activity (NCI-H1975 [15]): 5.7%
- AUC(0-t) at 12 h [16]: 80800 ng·h/mL
- Cmax [17]: 33000 ng/mL
- half-life [18]: 2.87 h
- Activity (NCI-H1299): inactive
- Activity (HEK-293T): Non-Toxic
- Activity (SK-N-BE(2)): inactive
- Activity (SH-SY5Y): inactive
- Activity (NCI-H3122 [19]): Dose-Dependent Effect
- Activity (NCI-H3122 [20]): Dose-Dependent Effect
- AUC(0-t) at 12 h [21]: 6080 ng·h/mL
- Activity (NCI-H3122 [22]): 8.1%
- Activity (NCI-H1975 [23]): 10.2%
- Activity (NCI-H3122 [24]): 90.4%
- Activity (NCI-H3122 [25]): 3.9%
- Activity (NCI-H1975 [26]): 15.9%
- Activity (A549): inactive
- inhibition (NCI-H3122 [27]): inactive
- Activity (PC-9): inactive
- Activity (NCI-H1975 [28]): 32.5%
- inhibition (NCI-H1975 [29]): inactive
